Data taken from US10144742B2 (Millennium Pharmaceuticals, Inc., priority 2014, dated 2018).
Like-named read-outs stand apart in the source and are kept apart here.

Experiments:
[1] = biological target: hNAMPT protein (Homo sapiens (Human), UniProt P43490); assay: NAMPT enzyme assay (TR-FRET/HTRF, BodiPY ligand, anti 6His-Tb); format: binding; conditions: for inhibition at 1 µM: read-out: Percent Inhibition; for IC50: read-out: IC50
In short: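 TR-FRET binding assay in which His-tagged human NAMPT with anti-6His-Tb is displaced by compound from a BodiPY ligand, incubated 1 h at rt in the dark. Excitation was at 320 nm, with the 520/486 nm emission ratio read. IC50 was fitted from inhibition relative to DMSO controls.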

[2] = tested on: PC3 cells; assay: PC3 growth inhibition (Cell-titer glo, 72 hours); format: cell-based; conditions: Homo sapiens, PC-3, PC3 cells, 72 hours, Cell-titer glo, read-out: Percent Inhibition (PC3 growth inhibition); for inhibition at 1.667 µM: compound concentration 1.667 μM; for inhibition at 1 µM: compound concentration 1 μM
In short: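 PC3 cells in RPMI1640 seeded overnight at 37 °C, 5% CO2, then exposed to compound diluted in AIM serum-free medium for 72 h. Viability by CellTiter-Glo luminescence vs DMSO controls; single-concentration % remaining viability (1 μM or 1.667 μM), or GI50/LD50 from curves.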

[3] = NAMPT inhibition at compound concentration 1 μM
[4] = NAMPT inhibition, IC50 range class

Chain of hNAMPT protein (P43490 whole entry): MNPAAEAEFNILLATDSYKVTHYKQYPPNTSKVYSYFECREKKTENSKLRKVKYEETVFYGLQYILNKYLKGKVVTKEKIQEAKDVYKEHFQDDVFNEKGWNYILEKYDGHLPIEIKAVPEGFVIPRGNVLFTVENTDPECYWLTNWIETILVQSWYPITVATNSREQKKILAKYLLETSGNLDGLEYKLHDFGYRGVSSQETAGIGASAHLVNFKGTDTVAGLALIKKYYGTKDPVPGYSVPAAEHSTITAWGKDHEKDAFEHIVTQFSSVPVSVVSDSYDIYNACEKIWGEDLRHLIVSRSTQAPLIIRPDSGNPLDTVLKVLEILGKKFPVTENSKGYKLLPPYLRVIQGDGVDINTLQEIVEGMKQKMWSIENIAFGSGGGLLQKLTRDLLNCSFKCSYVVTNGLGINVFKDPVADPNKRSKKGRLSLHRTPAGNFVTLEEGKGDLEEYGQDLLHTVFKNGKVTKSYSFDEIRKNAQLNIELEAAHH

| SMILES | inhibition at 1 µM [1, 3] | IC50 [1, 4] | inhibition at 1.667 µM [2] | IC50 ([1]; NAMPT IC50 range class) | inhibition at 1 µM [1] | inhibition at 1 µM [2] | inhibition at 1 µM ([1]; compound concentration 1 μM) |
| --- | --- | --- | --- | --- | --- | --- | --- |
| O=C(NCCCc1ncc[nH]1)c1ccc2nc(-c3ccc(F)cc3)c(-c3cc(F)c(F)c(F)c3)nc2c1 [Compound I-449, 2-(4-fluorophenyl)-N-[3-(1H-imidazol-2-yl)propyl]-3-(3,4,5-trifluorophenyl)quinoxaline-6-carboxamide] | 82% | 0.1 to 0.5 µM | 3% |  |  |  |  |
| N#Cc1nc2ccc(C(=O)NCCCn3ccnc3)cc2nc1-c1ccccc1 [Compound I-142, 2-Cyano-N-[3-(1H-imidazol-1-yl)propyl]-3-phenylquinoxaline-6-carboxamide] |  |  |  | 2 to 10 µM | 24% | 95% |  |
| O=C(NCCOc1cccnc1)c1ccc2nc(N3CCC(N4CCOCC4)CC3)c(-c3ccc(F)cc3)nc2c1 [Compound I-221, 3-(4-fluorophenyl)-2-[4-(morpholin-4-yl)piperidin-1-yl]-N-[2-(pyridin-3-yloxy)ethyl]quinoxaline-6-carboxamide] |  |  | 2% | < 0.1 µM |  |  | > 99% |
| CC1(C)CN(c2nc3ccc(C(=O)NCCCn4ccnc4)cc3nc2-c2ccccc2)CCO1 [Compound I-31, 2-(2,2-dimethylmorpholin-4-yl)-N-[3-(1H-imidazol-1-yl)propyl]-3-phenylquinoxaline-6-carboxamide] |  |  |  | < 0.1 µM |  | -7% | 89% |
| O=C(NCCCn1ccnc1)c1ccc2nc(-c3ccccc3)c(-c3cccc(OC(F)(F)F)c3)nc2c1 [Compound I-95, N-[3-(1H-imidazol-1-yl)propyl]-2-phenyl-3-[3-(trifluoromethoxy)phenyl]quinoxaline-6-carboxamide] |  |  |  | 0.5 to 1 µM |  | 1% | 61% |
| CCOc1nc2ccc(C(=O)NCCCc3ncc[nH]3)cc2nc1-c1ccc(Cl)cc1 [Compound I-402, 3-(4-chlorophenyl)-2-ethoxy-N-[3-(1H-imidazol-2-yl)propyl]quinoxaline-6-carboxamide] | 97% | < 0.1 µM | 2% |  |  |  |  |
| O=C(NCCc1cccnc1)c1ccc2nc(-c3ccccc3)c(-c3ccccc3)nc2c1 [Compound I-93, 2,3-diphenyl-N-[2-(pyridin-3-yl)ethyl]quinoxaline-6-carboxamide] |  |  |  | 0.5 to 1 µM |  | 15% | 52% |
| O=C(NCCCc1ncc[nH]1)c1ccc2nc(OC3CCNCC3)c(-c3ccc(F)cc3)nc2c1 [Compound I-514, 3-(4-fluorophenyl)-N-[3-(1H-imidazol-2-yl)propyl]-2-(piperidin-4-yloxy)quinoxaline-6-carboxamide] | 97% | < 0.1 µM | 3% |  |  |  |  |
| O=C(NCCOc1cccnc1)c1ccc2nc(N3CCC(O)CC3)c(-c3ccc(F)cc3)nc2c1 [Compound I-114, 3-(4-Fluorophenyl)-2-(4-hydroxypiperidin-1-yl)-N-[2-(pyridin-3-yloxy)ethyl]quinoxaline-6-carboxamide] |  |  | 2% | < 0.1 µM | > 99% |  |  |
| COCC(COC)Oc1nc2ccc(C(=O)NCCCc3ncc[nH]3)cc2nc1-c1ccc(F)cc1 [Compound I-411, 2-[(1,3-dimethoxypropan-2-yl)oxy]-3-(4-fluorophenyl)-N-[3-(1H-imidazol-2-yl)propyl]quinoxaline-6-carboxamide] | 97% | 0.1 to 0.5 µM | 2% |  |  |  |  |
| O=C(NCCCn1ccnc1)c1ccc2nc(-c3ccc4c(c3)CCO4)c(-c3ccccc3)nc2c1 [Compound I-140, 2-(2,3-dihydro-1-benzofuran-5-yl)-N-[3-(1H-imidazol-1-yl)propyl]-3-phenylquinoxaline-6-carboxamide] |  |  |  | 0.1 to 0.5 µM |  | -8% | 79% |
| O=C(c1ccc2nc(-c3ccc(F)cc3)c(-c3ccc(F)cc3)nc2c1)N1CCc2cn[nH]c2C1 [Compound I-244, [2,3-bis(4-fluorophenyl)quinoxalin-6-yl](1,4,5,7-tetrahydro-6H-pyrazolo[3,4-c]pyridin-6-yl)methanone] |  |  |  | 2 to 10 µM |  | 96% | 33% |
| Cc1cc(-c2nc3cc(C(=O)NCCCc4ncc[nH]4)ccc3nc2-c2ccc(F)cc2)ccc1F [Compound I-471, 3-(4-fluoro-3-methylphenyl)-2-(4-fluorophenyl)-N-[3-(1H-imidazol-2-yl)propyl]quinoxaline-6-carboxamide] | > 99% | < 0.1 µM | 2% |  |  |  |  |
| O=C(NCCCc1ncc[nH]1)c1ccc2nc(N3CCOCC3)c(-c3ccc(Cl)cc3)nc2c1 [Compound I-104, 3-(4-chlorophenyl)-N-[3-(1H-imidazol-2-yl)propyl]-2-(morpholin-4-yl)quinoxaline-6-carboxamide] |  |  | 2% | < 0.1 µM |  |  | 100% |
| O=C(NCCCc1ncc[nH]1)c1ccc2nc(OCC3CC(F)(F)C3)c(-c3ccc(F)cc3)nc2c1 [Compound I-316, 2-[(3,3-difluorocyclobutyl)methoxy]-3-(4-fluorophenyl)-N-[3-(1H-imidazol-2-yl)propyl]quinoxaline-6-carboxamide] |  |  | 2% | < 0.1 µM |  |  | 98% |
| CC(C)Oc1nc2ccc(C(=O)NCCCc3ncc[nH]3)cc2nc1-c1ccc(F)cc1 [Compound I-253, 3-(4-Fluorophenyl)-N-[3-(1H-imidazol-2-yl)propyl]-2-isopropoxyquinoxaline-6-carboxamide] |  |  | 2% | < 0.1 µM | 93% |  |  |
| O=C(NCCc1ncc[nH]1)c1ccc2nc(-c3ccc(F)cc3)c(-c3ccc(F)cc3)nc2c1 [Compound I-122, 2,3-Bis(4-fluorophenyl)-N-[2-(1H-imidazol-2-yl)ethyl]quinoxaline-6-carboxamide] |  |  | 4% | 2 to 10 µM |  |  | 60% |
| O=C(NCCc1ccncc1)c1ccc2nc(-c3ccc(F)cc3)c(-c3ccc(F)cc3)nc2c1 [Compound I-212, 2,3-bis(4-fluorophenyl)-N-[2-(pyridin-4-yl)ethyl]quinoxaline-6-carboxamide] |  |  |  | < 0.1 µM |  | 101% | 95% |
| O=C(NCCCc1ccnnc1)c1ccc2nc(N3CCOCC3)c(-c3ccc(F)cc3)nc2c1 [Compound I-47, 3-(4-Fluorophenyl)-2-(morpholin-4-yl)-N-[3-(pyridazin-4-yl)propyl]quinoxaline-6-carboxamide] |  |  | 33% | < 0.1 µM | 90% |  |  |
| O=C(NCCCc1ncc[nH]1)c1ccc2nc(OCc3cccnc3)c(-c3ccc(F)cc3)nc2c1 [Compound I-409, 3-(4-fluorophenyl)-N-[3-(1H-imidazol-2-yl)propyl]-2-(pyridin-3-ylmethoxy)quinoxaline-6-carboxamide] | 98% | < 0.1 µM | 2% |  |  |  |  |
| O=C(NCCOc1cccnc1)c1ccc2nc(-c3ccc(F)cc3)c(-c3ccc(F)cc3)nc2c1 [Compound I-65, 2,3-bis(4-fluorophenyl)-N-[2-(pyridin-3-yloxy)ethyl]quinoxaline-6-carboxamide] |  |  | 2% | < 0.1 µM |  |  | 95% |
| Cn1ccc2c1CN(C(=O)c1ccc3nc(-c4ccc(F)cc4)c(-c4ccc(F)cc4)nc3c1)CC2 [Compound I-303, [2,3-bis(4-fluorophenyl)quinoxalin-6-yl](1-methyl-1,4,5,7-tetrahydro-6H-pyrrolo[2,3-c]pyridin-6-yl)methanone] |  |  |  | 2 to 10 µM |  | 95% | 15% |
| CC(C)Oc1nc2ccc(C(=O)NCCCc3ncc[nH]3)cc2nc1-c1cccc(SC(F)(F)F)c1 [Compound I-421, N-[3-(1H-imidazol-2-yl)propyl]-2-isopropoxy-3-{3-[(trifluoromethyl)sulfanyl]phenyl}quinoxaline-6-carboxamide] | 78% | 0.1 to 0.5 µM | 1% |  |  |  |  |
| Cc1ccc(Cl)cc1-c1nc2cc(C(=O)NCCCc3ncc[nH]3)ccc2nc1-c1ccc(F)cc1 [Compound I-493, 3-(5-chloro-2-methylphenyl)-2-(4-fluorophenyl)-N-[3-(1H-imidazol-2-yl)propyl]quinoxaline-6-carboxamide] | 98% | < 0.1 µM | 1% |  |  |  |  |
| O=C(NCCCn1ccnc1)c1ccc2nc(N3CCn4ccnc4C3)c(-c3ccccc3)nc2c1 [Compound I-296, 2-(5,6-dihydroimidazo[1,2-a]pyrazin-7(8H)-yl)-N-[3-(1H-imidazol-1-yl)propyl]-3-phenylquinoxaline-6-carboxamide] |  |  |  | 0.5 to 1 µM |  | -7% | 67% |
| O=C(NCCCc1ccnnc1)c1ccc2nc(N3CCCCC3)c(-c3ccc(F)cc3)nc2c1 [Compound I-103, 3-(4-fluorophenyl)-2-(piperidin-1-yl)-N-[3-(pyridazin-4-yl)propyl]quinoxaline-6-carboxamide] |  |  | 58% | < 0.1 µM |  |  | 96% |
| O=C(NCCCc1ncc[nH]1)c1ccc2nc(-c3ccc(F)cc3)c(-c3cc(F)ccc3Cl)nc2c1 [Compound I-399, 3-(2-chloro-5-fluorophenyl)-2-(4-fluorophenyl)-N-[3-(1H-imidazol-2-yl)propyl]quinoxaline-6-carboxamide] | 95% | < 0.1 µM | 1% |  |  |  |  |
